{"source": "patent US9505834B2", "about": "“Methods for controlling the galactosylation profile of recombinantly-expressed proteins” (AbbVie Inc., priority 2011, dated 2016)", "key": {"[1]": {"tested_on": "CHO cell line producing mAb #2", "description": "(§1) For all studies with CHO cell lines described throughout this invention, samples were collected daily and measured for cell density and viability using a Cedex cell counter. Retention samples for titer analysis via Poros A method were collected by centrifugation at 12,000 RPM for 5 min when the culture viability began declining. The cultures were harvested by collecting 125 mL aliquots and centrifuging at 3,000 RPM for 30 min when culture viability was near or below 50%. All supernatants were stored at −80° C. until analysis.\nGrowth and production media for the mAb #2 producing CHO cell line were prepared using the proprietary Life Technologies Gibco chemically defined media, GIA-1.\nUpon thaw, cells were expanded in Corning vented non-baffled shake flasks maintained on orbital shakers at 140 RPM, and in 10 L cell bags (2 L working volume) maintained at 25 RPM, 7° angle, 0.25 SLPM airflow in a dry incubator at 36° C. and 5% CO2. Production cultures were initiated in 3 L bioreactors (1.5 L initial working volume) at 36° C., 25% dissolved oxygen, 200 RPM, and pH 7.0. The chemically-defined feed from Life Technologies Gibco JCL-5 was added as follows: 3% (v/v)—day 3, 5%—day 5, 7%—day 7, 10%—day 9, and 10%—day 11. […] Bioreactors were harvested at viability of approximately 70% or below or on production day 15, whichever condition occurred first. […]"}, "[2]": {"tested_on": "adalimumab-producing CHO cell line", "conditions": "10 μM manganese chloride; within historical variation", "description": "as §1\nAll media were filtered through Corning 0.5 L or 1 L filter systems (0.22 μm PES) and stored at 4° C. until use.\nProduction cultures were initiated in duplicate 500 mL Corning vented non-baffled shake flasks (200 mL working volume) at an initial VCD of approximately 0.5×10^6 cells/mL. Cultures were maintained on orbital shakers at 110 RPM in a dry incubator at 35° C. and 5% CO2. A glucose solution (1.25% (v/v) of 40% solution) was fed when the media glucose concentration fell below 3 g/L."}}, "note": "Where two headings read alike, the source gives them in different places.", "data": [{"substance": "Manganese (II) Chloride [manganese chloride]", "values": [{"measurement": "growth profile", "setting": "[1]; 25 μM manganese chloride alone", "value": "grew slower after production day 7"}, {"measurement": "growth profile", "setting": "[1]; manganese chloride 50 μM or 75 μM", "value": "growth profiles comparable to the control culture"}, {"measurement": "maximum VCD compared to all other cultures", "setting": "[2]", "value": "slightly higher maximum VCD"}]}]}
